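In this assay, cells in 96-well plates receive the compound at five concentrations for 48 hours. Endpoints are linearly interpolated between the surrounding concentrations. GI50: concentration for 50% inhibition of growth. TGI: concentration producing complete growth inhibition.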
Columns and labels:
Assay in all cases: inhibition of tumour cell growth, NCI panel, 48 h
COLO 205 colon = system: COLO 205 colon
HT29 colon = system: HT29 colon
NCI-H23 lung = system: NCI-H23 lung
HCT-116 colon = system: HCT-116 colon
A549 NSCLC = system: A549 NSCLC
HS 578T breast = system: HS 578T breast
UACC-62 melanoma = system: UACC-62 melanoma
NCI-H226 lung = system: NCI-H226 lung
NCI-H522 lung = system: NCI-H522 lung
RXF 393 renal = system: RXF 393 renal

SMILES	TGI (COLO 205 colon)	TGI (HT29 colon)	TGI (NCI-H23 lung)	TGI (HCT-116 colon)	TGI (A549 NSCLC)	TGI (HS 578T breast)	TGI (UACC-62 melanoma)	TGI (NCI-H226 lung)	TGI (NCI-H522 lung)	TGI (RXF 393 renal)	GI50 (COLO 205 colon)	GI50 (NCI-H522 lung)	GI50 (HT29 colon)	GI50 (NCI-H23 lung)	GI50 (HCT-116 colon)	GI50 (A549 NSCLC)	GI50 (HS 578T breast)	GI50 (RXF 393 renal)	GI50 (UACC-62 melanoma)	GI50 (NCI-H226 lung)
c1ccc2c(c1)c1c(n2CCOCCN2CCCCC2)CCCC1	26 µM	24.6 µM	37.4 µM	25 µM	30.1 µM	32.1 µM	28.7 µM	38.5 µM	–	–	–	–	–	–	–	–	–	–	–	–
CSC1=Nc2ccccc2-c2nc(-c3ccccc3)cc(-c3ccccc3)c2C1	> 100 µM	> 100 µM	33.5 µM	30.7 µM	> 100 µM	–	60.5 µM	> 100 µM	40.1 µM	45 µM	–	–	–	–	–	–	–	–	–	–
COC12C=C/C(=C(/C(=O)OCc3ccncn3)C(=O)CCCCCCCCC3(OC)C=C/C(=C(/C(=O)OCc4ccncn4)C(=O)CCCCCCCC1)O3)O2	1.32 µM	0.689 µM	0.944 µM	1.09 µM	1.49 µM	5.11 µM	–	–	0.545 µM	–	0.348 µM	0.207 µM	0.266 µM	0.293 µM	0.266 µM	0.363 µM	0.402 µM	–	–	–
CCSc1ncnc2c(C3OC(CO)C(O)C3O)nsc12 (stereo not given)	> 100 µM	> 100 µM	–	> 100 µM	> 100 µM	> 100 µM	–	> 100 µM	–	> 100 µM	–	–	–	–	–	–	–	–	–	–
CC1(C)O[C@H](C(=O)O)[C@@H](C(=O)O)O1	> 100 µM	> 100 µM	–	> 100 µM	> 100 µM	> 100 µM	> 100 µM	> 100 µM	> 100 µM	> 100 µM	–	–	–	–	–	–	–	–	–	–
CN(C)N=Nc1ccc([N+](=O)[O-])cc1C(N)=O	> 100 µM	> 100 µM	> 100 µM	> 100 µM	> 100 µM	–	> 100 µM	> 100 µM	> 100 µM	> 100 µM	–	–	–	–	–	–	–	–	–	–
CC(=O)Nc1ccc(S(=O)(=O)Nc2nnc(S(N)(=O)=O)s2)cc1	> 100 µM	> 100 µM	> 100 µM	> 100 µM	> 100 µM	–	> 100 µM	> 100 µM	> 100 µM	> 100 µM	–	–	–	–	–	–	–	–	–	–
CC(C)OC(=O)c1ccc(NCC2=CC(=O)C=CC2=O)cc1Cl	21.3 µM	> 62.5 µM	33.1 µM	> 53.2 µM	> 100 µM	> 100 µM	30.1 µM	> 62.6 µM	–	47.5 µM	–	–	–	–	–	–	–	–	–	–
CC1CN=C(Nc2cccc(C(F)(F)F)c2)S1 (stereo not given)	–	> 100 µM	> 100 µM	> 100 µM	–	> 100 µM	> 100 µM	> 100 µM	> 100 µM	> 100 µM	–	–	–	–	–	–	–	–	–	–
Cc1nc2c(cc1C(=O)NN)c(=O)n(C)c(=O)n2C	> 100 µM	> 100 µM	> 100 µM	> 100 µM	> 100 µM	–	> 100 µM	> 100 µM	–	> 100 µM	–	–	–	–	–	–	–	–	–	–
CN(C(=O)C12C3C4(C(=O)O)C1(C(=O)N(C)C(C)(C)C)C1C2(C(=O)O)C3(C(=O)N(C)C(C)(C)C)C14C(=O)N(C)C(C)(C)C)C(C)(C)C (stereo not given)	> 100 µM	> 100 µM	> 100 µM	> 100 µM	> 100 µM	> 100 µM	> 100 µM	–	> 100 µM	> 100 µM	–	–	–	–	–	–	–	–	–	–
CCN1CCN(C(=O)[C@]23CC[C@@H](C)[C@H](C)[C@@H]2C2=CC[C@@H]4[C@@]5(C)C/C(=C/c6cccnc6)C(=O)C(C)(C)[C@@H]5CC[C@@]4(C)[C@]2(C)CC3)CC1	5.12 µM	5.36 µM	5.91 µM	3.55 µM	16.8 µM	4.77 µM	2.96 µM	4.07 µM	–	2.83 µM	2.19 µM	–	1.93 µM	2.13 µM	1.69 µM	3.15 µM	1.91 µM	1.45 µM	1.51 µM	1.89 µM
Cc1cn(C2CC(O)C(CO)C2C)c(=O)[nH]c1=O (stereo not given)	> 100 µM	> 100 µM	> 100 µM	> 100 µM	> 100 µM	–	> 100 µM	> 100 µM	> 100 µM	> 100 µM	–	–	–	–	–	–	–	–	–	–
CO/C(=N\N=C\c1ccc(Cl)cc1)c1ccncc1	> 100 µM	> 100 µM	> 100 µM	> 100 µM	> 100 µM	–	> 100 µM	> 100 µM	> 100 µM	> 100 µM	–	–	–	–	–	–	–	–	–	–
O=S(=O)(c1cc(Cl)ccc1Cl)N1CCN(S(=O)(=O)c2cc(Cl)ccc2Cl)CC1	–	> 100 µM	18.7 µM	> 100 µM	> 100 µM	83.4 µM	2.48 µM	> 100 µM	> 100 µM	> 100 µM	–	–	–	–	–	–	–	–	–	–
Cc1ccccc1N=C(N)NC#N	> 100 µM	> 100 µM	> 100 µM	> 100 µM	> 100 µM	> 100 µM	> 100 µM	–	–	> 100 µM	–	–	–	–	–	–	–	–	–	–
O=[N+]([O-])C(/C(Cl)=C(/Cl)N1CCOCC1)=C1\NCCO1	> 100 µM	> 100 µM	> 100 µM	> 100 µM	> 100 µM	> 100 µM	> 100 µM	> 100 µM	–	–	–	–	–	–	–	–	–	–	–	–
O=C1C=Cc2c(Cl)sc(Cl)c21	–	3.34 µM	5.68 µM	2.33 µM	> 90.6 µM	–	8.64 µM	16.1 µM	–	4.28 µM	–	–	–	–	–	–	–	–	–	–
CCOC(=O)c1ccc(-c2cc(C)[nH]n2)[nH]1	> 100 µM	> 100 µM	> 100 µM	> 100 µM	> 100 µM	–	> 100 µM	> 100 µM	> 100 µM	> 100 µM	–	–	–	–	–	–	–	–	–	–
Cc1cc(S(=O)(=O)Nc2nc3ccsc3c(=O)n2N)c(S)cc1Cl	> 100 µM	> 100 µM	> 100 µM	> 100 µM	> 100 µM	–	> 100 µM	88 µM	> 100 µM	–	–	–	–	–	–	–	–	–	–	–
C[C@]12CC[C@H]3[C@@H](CCC4=CC(=O)C=C[C@@]43O)[C@@H]1CCC2=O	> 100 µM	–	> 100 µM	> 100 µM	> 100 µM	–	> 100 µM	> 100 µM	–	> 100 µM	–	–	–	–	–	–	–	–	–	–
CC(C)(C)C#C[P+](c1ccccc1)(c1ccccc1)c1ccccc1	0.397 µM	1.11 µM	1.38 µM	0.95 µM	1.91 µM	–	0.979 µM	0.984 µM	0.448 µM	1.37 µM	–	–	–	–	–	–	–	–	–	–

From PubChem BioAssay (NCI)
